# Test results as given in patent EP2604265A1, “P2x7 antagonists as frontline or adjunctive treatment against status epilepticus” (Royal College of Surgeons in Ireland (RCSI), priority 2011, dated 2013).
# How the values were obtained:
# Adult male C57BL/6 mice [1] = assay: Intra-amygdala KA-induced SE in mice, EEG, drug i.c.v. immediately prior to KA; assay type: in vivo; conditions: i.c.v. co-injection immediately prior to intra-amygdala KA; vs vehicle (antibody vs control IgG); lorazepam at 40 min
# Method: (§1) Adult male C57BL/6 mice (20-25 g) were obtained from Harlan UK (Blackthorn, UK). Mice were first anesthetized using isoflurane (3-5%) and maintained normothermic by means of a feedback-controlled heat blanket (Harvard Apparatus Ltd, Kent, UK). Mice were next placed in a stereotaxic frame and three partial craniectomies performed to affix cortical skull-mounted EEG electrodes (Bilaney Consultants Ltd, Sevenoaks, UK). EEG was recorded using a Grass Comet XL digital EEG (Medivent Ltd, Lucan, Ireland). A guide cannula was affixed (coordinates from Bregma: AP = 0.94; L = 2.85 mm) and the assembly fixed in place with dental cement. Anesthesia was then discontinued and freely moving mice were placed inside a clear perspex recording chamber. EEG recordings were commenced and after establishing baseline EEG for a few minutes, an injection cannula was lowered through the guide cannula for injection of kainic acid (KA) (Ocean Produce International, Nova Scotia, Canada) into the basolateral amygdala nucleus (0.3 µg in 0.2 µl phosphate-buffered saline). Non-seizure control mice underwent the same surgical procedure but received 0.2 µl intra-amygdala vehicle. Mice were killed at different time-points (1, 4, 8 or 24 h) later and perfused with saline to remove intravascular blood components. Brains were either flash-frozen whole in 2-methylbutane at […] or perfused with 4% PFA for histopathology, or dissected on ice to obtain whole hippocampus or microdissected to obtain the different hippocampal subfields (CA1, DG and CA3).
# Digitized EEG recordings were analyzed off-line using manual assessment and automated software. […] The duration of high-frequency (>5 Hz) high-amplitude (>2× baseline) polyspike discharges of ≥5 s duration (HAHFDs) was counted by a reviewer blind to treatment. Further EEG analysis was performed by uploading EEG into Labchart7 software (ADInstruments) to calculate the power spectral density (total power, a measure of the input signal's power (amplitude) over frequency) EEG spectrogram (spectral power against frequency and time).
# All the following drugs were purchased from Sigma-Aldrich Ireland (Arklow, Ireland) and delivered by intracerebroventricular (i.c.v.) microinjection in 2 µl volume unless otherwise specified: Adenosine 5'-triphosphate (ATP) at 100 µM, Uridine-5'-triphosphate (UTP) at 100 µM, Uridine-5'-diphosphate (UDP) at 100 µM, 2-chloro-N6-cyclopentyladenosine (CCPA) 300 nM, Pyridoxal-phosphate-6-azophenyl-2,4-disulfonate (PPADS) at 50 µM, α,β- methylene- adenosine-5-triphosphate (α,β-meATP) at 0.1 nmol, 3-O-(4-benzoyl)benzyl-ATP (Bz-ATP) at 300 µM, Brillant Blue G (BBG) at 30 nM.
# Lorazepam (Ativan®, Wyeth, Taplow, U.K.) (6 mg/kg) was administered intraperitoneally (i.p.) at 40 or 60 min after KA.
# Next, a model of focal-onset SE was used to evaluate the contributions of ATP-gated receptors in vivo. Mice received intra-amygdala microinjection of KA to induce SE (Fig. 2C). […] The electroencephalogram (EEG) was recorded by using cranial electrodes (lower part of Fig. 2C). Seizures were curtailed after 40 min by the injection of lorazepam to minimize morbidity and mortality.
# hippocampal neurons = assay: Luciferine-luciferase luminescence assay of extracellular ATP release; assay type: cell-based, mouse; conditions: primary cultures; glutamate 100 µM; NEM 500 µM pre-treatment
# Method: Hippocampal neurons were prepared as described previously (Diaz-Hernandez et al., 2008). Briefly, hippocampi were obtained from E17 mouse embryos and, after dissection and washing three times in Ca^2+/Mg^2+-free HBSS, tissue was digested in the same solution with 0.25% trypsin for 15 min at 37°C. Hippocampi were then washed three times in Ca^2+/Mg^2+-free HBSS and dissociated with a firepolished Pasteur pipette. Cells were counted, resuspended in plating medium (MEM, 10% fetal bovine serum, 0.6% glucose) and plated at a density of 5,000 cells/cm^2 on poly-L-lysine coated coverslips (1 mg/ml). After plating, neurons were cultured for 24-72 h in neuronal culture medium (Neurobasal, B-27, glutamax-I). For biochemical experiments, hippocampal neurons were plated on polylysine-coated (1 mg/ml) 60-mm plates at a density of 200,000 cells/cm^2, and cultured for 72 h in neuronal culture medium. AraC was added at a final concentration of 5 µM after 2 days in culture. Extracellular ATP concentration was measured as previously described (Diez-Zaera et al., 2011). Neurons were grown in 6-well plates at a density of 200,000 cells/cm^2. […] In some cases, ATP release was also measured in the presence of A-438079 (1 µM). ATP concentration was determined by comparison with a calibration curve generated with ATP standards diluted in the same buffer as the samples.
# Adult male C57BL/6 mice [2] = assay: Histopathology of ipsilateral hippocampal CA3 after SE (FJB and NeuN counts); assay type: in vivo; conditions: 24 h after SE; drug given prior to SE; vs vehicle
# Method: as §1
# Flash-frozen brains in 2-methylbutane were sectioned at -20°C on a Leica cryostat and 12 µm sections collected at the level of dorsal hippocampus (-1.8 mm and - 2.9 mm from Bregma according to a mouse stereotaxic atlas (Paxinos and Franklin, 2001). Neuronal death was assessed using Fluoro-Jade B (FJB) staining, as previously described (Engel et al., 2010; Murphy et al., 2010). Briefly, sections were air-dried and post-fixed in formalin followed by hydrating through graded alcohols. Sections were then rinsed in distilled water and transferred to 0.006% potassium permanganate solution for 15 min. Sections were rinsed again and transferred to a 0.001% FJB solution according to manufacturer's recommendations (Chemicon Europe Ltd, Chandlers Ford, UK). After staining, sections were mounted in DPX (Sigma-Aldrich). For NeuN immunohistochemistry, sections were fixed and permeabilized, blocked in goat serum and incubated overnight with anti-NeuN antibodies (Millipore Ireland B.V., Tullagreen, Ireland) followed by incubation with goat anti-rabbit IgG antibodies coupled to AlexaFluor 568 (BioSciences Limited, Dun Laoghaire, Ireland). Sections were examined using a Nikon 2000s epifluorescence microscope under Ex/Em wavelengths of 472/520 nm (green) and 540 to 580/600 to 660 nm (red) and images captured using a Hamamatsu Orca 285 camera. Cell counts were the average of two adjacent sections for the CA3 subfield under 40x lens magnification by an observer blinded to treatment.
# Adult male C57BL/6 mice [3] = assay: Refractory SE model in mice, drugs given 60 min post-KA, EEG during the next hour; assay type: in vivo
# Method: as §1
# Digitized EEG recordings were analyzed off-line using manual assessment and automated software. The occurrence of high amplitude high frequency spiking during seizures is synonymous with injury-causing electrographic seizures during SE (also termed type IV electrographic seizures) (Lowenstein et al., 1991; Henshall et al., 2000). The duration of high-frequency (>5 Hz) high-amplitude (>2× baseline) polyspike discharges of ≥5 s duration (HAHFDs) was counted by a reviewer blind to treatment. Further EEG analysis was performed by uploading EEG into Labchart7 software (ADInstruments) to calculate the power spectral density (total power, a measure of the input signal's power (amplitude) over frequency) EEG spectrogram (spectral power against frequency and time).
# A-438079 (3-[[5-(2,3-Dichlorophenyl)-1H-tetrazol-1-yl]methyl]pyridine hydrochloride) (50 µM) was from Tocris Biosciences (Bristol, U.K.) and the P2X7R specific antibody was from Alomone Labs (APR-008, Alomone Labs, Ltd, Jerusalem, Israel) and injected at 0.7 mg/ml. Lorazepam (Ativan®, Wyeth, Taplow, U.K.) (6 mg/kg) was administered intraperitoneally (i.p.) at 40 or 60 min after KA.
# To model refractory SE, seizures were allowed to continue beyond the normal time when lorazepam is given (40 min) and instead the effects of drugs were recorded 60 min post-KA on the EEG during the next hour.
# [4] = in vivo; cited from earlier work
# rat models = conditions: mifepristone before or after the onset of SE; cited from earlier work
# neonatal seizures = conditions: in vivo; cited from earlier work
smiles,measurement,setting,value
"Nc1ncnc2c1ncn2[C@@H]1O[C@H](COP(=O)(O)OP(=O)(O)OP(=O)(O)O)[C@@H](O)[C@H]1O [ATP, Adenosine 5'-triphosphate]",seizure time during SE (duration of HAHFDs),Adult male C57BL/6 mice [1],significantly increased
"Nc1ncnc2c1ncn2[C@@H]1O[C@H](COP(=O)(O)OP(=O)(O)OP(=O)(O)O)[C@@H](OC(=O)c2ccc(C(=O)c3ccccc3)cc2)[C@H]1O [BzATP, 3-O-(4-benzoyl)benzyl-ATP]",seizure time during SE (duration of HAHFDs),Adult male C57BL/6 mice [1],significant increase of seizure time
"OC[C@H]1O[C@@H](n2cnc3c(NC4CCCC4)nc(Cl)nc32)[C@H](O)[C@@H]1O [CCPA, 2-chloro-N6-cyclopentyladenosine]",seizure time during SE (duration of HAHFDs),Adult male C57BL/6 mice [1],significantly reduced
"CCN1C(=O)C=CC1=O [NEM, N-Ethylmaleimide]",ATP release from hippocampal neurons,hippocampal neurons,ATP release was blocked
"Cc1nc(N=Nc2ccc(S(=O)(=O)O)cc2S(=O)(=O)O)c(COP(=O)(O)O)c(C=O)c1O [PPADS, Pyridoxal-phosphate-6-azophenyl-2,4-disulfonate]",seizure time during SE (duration of HAHFDs),Adult male C57BL/6 mice [1],"only a weak, non-significant effect"
same,Counts of surviving CA3 neurons (NeuN),Adult male C57BL/6 mice [2],not protective
same,FJB-positive cells within the CA3 subfield (neuronal death),Adult male C57BL/6 mice [2],did not afford protection
"O=c1ccn([C@@H]2O[C@H](COP(=O)(O)OP(=O)(O)O)[C@@H](O)[C@H]2O)c(=O)[nH]1 [UDP, Uridine-5'-diphosphate]",seizure time during SE (duration of HAHFDs),Adult male C57BL/6 mice [1],no differences in seizure time
"O=c1ccn([C@@H]2O[C@H](COP(=O)(O)OP(=O)(O)OP(=O)(O)O)[C@@H](O)[C@H]2O)c(=O)[nH]1 [UTP, Uridine-5'-triphosphate]",seizure time during SE (duration of HAHFDs),Adult male C57BL/6 mice [1],no differences in seizure time
N[C@@H](CCC(=O)O)C(=O)O [glutamate],ATP release from hippocampal neurons,hippocampal neurons,induced the rapid release of ATP
"O=C1Nc2ccc(Cl)cc2C(c2ccccc2Cl)=NC1O (stereo not drawn) [lorazepam, Lorazepam]",total seizure time (duration of HAHFDs),"Adult male C57BL/6 mice [3]; given 60 min after KA, 60 min recording, vs vehicle",failed to significantly reduce
same,total seizure power (total EEG power),"Adult male C57BL/6 mice [3]; given 60 min after KA, vs vehicle",significant reduction
same,mice continued in SE,"Adult male C57BL/6 mice [3]; given alone 60 min after KA, number of mice / group",4/7
same,reduction in power,"Adult male C57BL/6 mice [3]; total power analysis, Fig. 9C, given 60 min after KA, compared to Veh",~50%
same,duration of action,[4],2 to 8 h
CC#C[C@]1(O)CC[C@H]2[C@@H]3CCC4=CC(=O)CCC4=C3[C@@H](c3ccc(N(C)C)cc3)C[C@@]21C [mifepristone],efficiency of diazepam,rat models,increases efficiency of diazepam
CCC1(c2ccccc2)C(=O)NC(=O)NC1=O [phenobarbitone],cases in which neonatal seizures are not stopped,neonatal seizures,over 50%
"Nc1ncnc2c1ncn2C1OC(COP(=O)(O)CP(=O)(O)OP(=O)(O)O)C(O)C1O (stereo not drawn) [α/β-methylATP, α,β-methylene-adenosine-5-triphosphate]",seizure time during SE (duration of HAHFDs),Adult male C57BL/6 mice [1],no differences in seizure time
